Results on one compound are retold here after patent publication US20190183939A1, “CELL THERAPY USING MIDBRAIN-TYPE NEURAL STEM CELLS TREATED WITH VITAMIN C” (INDUSTRY-UNIVERSITY COOPERATION FOUNDATION HANYANG …, priority 2017, published 2019).

The subject of test [1] is Foxa2 and Lmx1a promoters. The experiment in a line: DIP-qPCR and ChIP-qPCR on Foxa2 and Lmx1a promoters. The class given is cell-based, rat. The settings on record: Quercetin 10 μM, 3 hours prior to VC treatment. From the text:
(§1) Foxa2 and Nurr1 binding sites were identified using the Jaspar database (http://jaspar.genereg.net/) using an 80% score threshold. Predicted Foxa2 and Nurr1 binding sites were coupled with phylogenetic footprinting to eliminate spurious predictions with specified position weight matrix (PWM) settings, as described in the following reference. [Sandelin, A., and Wasserman, W. W. (2004). Constrained binding site diversity within families of transcription factors enhances pattern discovery bioinformatics. Journal of molecular biology 338, 207-215] (Table 2). ChIP and DIP assays were carried out as described in the following reference. [Prolonged membrane depolarization enhances midbrain dopamine neuron differentiation via epigenetic histone modifications. Stem Cells 29, 1861-1873]. Briefly, chromatin or genomic DNA was sheared to an average of 200-500 bp in length using a sonication Bioruptor (BMS, Seoul, Korea) and immunoprecipitated using the antibodies listed in Table 1. Immunoprecipitated DNA fragments were collected using magnetic beads (Invitrogen), purified, and subjected to real-time PCR using the primers listed in Table 3. The comparative cycle threshold method was used to quantify the results. Data were normalized to the input DNA.
On the technique in general: Real-time PCR tracks product formation cycle by cycle.

In the next test the test system is Nurr1 and TH promoters. The experiment in a line: DIP-qPCR and ChIP-qPCR on Nurr1 and TH promoters. The class given is cell-based, rat. The settings on record: Quercetin 10 μM, 3 hours prior to VC treatment.
Text: as §1

Turning to `O=c1c(O)c(-c2ccc(O)c(O)c2)oc2cc(O)cc(O)c12` [quercetin], in test [1], the “effect on VC-mediated changes to 5mC/5hmC and H3K27m3/H3K9m3 on Foxa2 and Lmx1a genes” value is listed as “abolished”. Also, the “effect on VC-induced epigenetic changes on Nurr1 and Th promoter” value in the test on Nurr1 and TH promoters is reported as “abolished”.
